# Laboratory results: article PMC6108835, “Target-Based Discovery of an Inhibitor of the Regulatory Phosphatase PPP1R15B” (Cell, 2018)
# Several values for one entry are separate records, joined by “and”; a condition that tells them apart may be missing. Equal values may be shown once. Peptide text beside a SMILES is read from it. * marks the point of attachment. Cbz = O=C(OCc1ccccc1)*
# Experiments:
# [1] = target: T1, R15B (Homo sapiens, UniProt Q5SWA1); assay: R15B levels on immunoblots of HeLa cell lysates; format: cell-based; details: HeLa cells, Raphin1 10 μM; MG-132 10 μM; NSM-873 or CB-5083 1 μM
# T1 construct: endogenous in cells; host or cells: HeLa
# T1 sequence (Q5SWA1 1-713): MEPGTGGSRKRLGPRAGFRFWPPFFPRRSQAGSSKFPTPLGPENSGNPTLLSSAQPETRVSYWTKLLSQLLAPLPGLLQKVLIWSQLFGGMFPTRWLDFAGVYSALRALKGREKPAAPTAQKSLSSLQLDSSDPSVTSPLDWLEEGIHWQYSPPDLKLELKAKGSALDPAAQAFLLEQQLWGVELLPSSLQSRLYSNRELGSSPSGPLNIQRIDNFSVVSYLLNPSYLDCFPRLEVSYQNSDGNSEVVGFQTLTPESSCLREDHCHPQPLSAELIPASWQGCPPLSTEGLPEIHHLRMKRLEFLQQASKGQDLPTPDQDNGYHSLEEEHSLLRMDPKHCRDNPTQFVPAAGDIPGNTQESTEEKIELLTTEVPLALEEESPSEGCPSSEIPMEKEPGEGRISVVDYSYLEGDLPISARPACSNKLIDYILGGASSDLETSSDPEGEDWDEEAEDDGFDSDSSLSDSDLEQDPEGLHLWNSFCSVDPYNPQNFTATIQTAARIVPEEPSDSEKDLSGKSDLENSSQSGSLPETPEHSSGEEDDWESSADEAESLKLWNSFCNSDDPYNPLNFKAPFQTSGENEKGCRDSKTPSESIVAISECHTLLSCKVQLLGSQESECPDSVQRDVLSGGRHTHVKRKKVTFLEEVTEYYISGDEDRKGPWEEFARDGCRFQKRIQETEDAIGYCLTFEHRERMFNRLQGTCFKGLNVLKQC
# Method: HeLa or MEF cells (90,000 cells/mL) were plated in 12-well plates (1 mL/well). The following day cells were treated as indicated; the medium was removed, fresh medium containing compound added and incubated at 37°C for the times indicated. The time course was performed in reverse order to facilitate collecting all samples at the same time. At the end of treatment cells were washed two times with ice-cold PBS and lysed in 150 μL Laemmli Buffer. […] Proteins were transferred to the nitrocellulose membrane using the iBlot 2 system (ThermoFisher Scientific). Membrane was blocked in 5% skimmed milk for 30 min and then probed with primary antibodies followed by incubation with the appropriate horseradish peroxidase-conjugated secondary antibodies (Promega). Proteins were visualized using ECL Prime (GE Healthcare) and imaged in the Chemi-Smart 5000 (Vilber-Lourmat, France) or ChemiDoc Touch (BioRad). Bands were quantified using ImageJ (NIH, USA).
# [2] = target: T2, PP1c (Homo sapiens, UniProt P36873); assay: PP1c catalytic activity assay (DiFMUP, EnzChek); details: his-PP1c 30 nM
# Method: Residual activity of PP1c was measured using the EnzChek Phosphatase Assay Kit (ThermoFisher Scientific) according to the supplier’s instructions, with minor modifications.
# [3] = target: T2, PP1c; assay: SPR, compounds binding to PP1c alone immobilized on streptavidin chip; design: cDNA encoding for human PP1cγ (aa 1-322) was cloned into two baculovirus transfer vectors; made in house; host or cells: Sf9 insect cells (baculovirus); details: PP1c immobilized on SA chip
# Method: (§1) Small molecules were stored as 50 mM stock solutions in 100% DMSO. […] If necessary the concentration range was adjusted to accurately determine the KD depending on the initial results. […] This was followed by 1 min stabilization period, to wash off any unspecific binding. […] After each dilution series, the surface was regenerated using 3 M NaCl for 90 s. […] In order to be able to correct for small variations in DMSO concentration between samples, eight solvent samples ranging from 0.06 to 8% DMSO were injected every 50th cycle. The flow cell temperature was 20°C.
# [4] = target: T3, R15A-PP1c holophosphatase (R15A^325-636-PP1c) (Homo sapiens, UniProt O75807); assay: Holophosphatase SPR, compounds binding to reconstituted R15A-PP1c; details: for Binding to R15A-PP1c (in words): SPR, up to 25 μM
# T3 construct: cDNAs encoding amino acids 325-636 of R15A and 340-698 of R15B were cloned into pMAL-c5x; made in house; host or cells: R15A: E. coli BL21-Gold (DE3) pLysS; bio-PP1c: Sf9 insect cells (baculovirus)
# Method: as §1
# [5] = target: T4, R15B (Homo sapiens, UniProt Q5SWA1); assay: Limited trypsin digestion of R15B; details: R15 3 μM, compound 100 μM, trypsin 5 nM, 5 min, 22°C
# T4 construct: cDNAs encoding amino acids 325-636 of R15A and 340-698 of R15B were cloned into pMAL-c5x; made in house; host or cells: E. coli BL21-Gold (DE3) pLysS
# Method: (§2) Reactions were initiated by addition of 5 nM of trypsin from bovine pancreas (Sigma-Aldrich), made up in PBS, and allowed to proceed for 5 min at 22°C, with shaking at 350 rpm. […] Proteins were visualized by staining with InstantBlue Protein Stain (Expedeon).
# [6] = target: R15A (Homo sapiens, UniProt O75807); assay: Limited trypsin digestion of R15A; design: cDNAs encoding amino acids 325-636 of R15A and 340-698 of R15B were cloned into pMAL-c5x; made in house; host or cells: E. coli BL21-Gold (DE3) pLysS; details: R15 3 μM, compound 100 μM, trypsin 5 nM, 5 min, 22°C
# Method: as §2
# [7] = test system: HeLa cells; assay: Assessment of translation rates (35S-methionine), HeLa cells; format: cell-based, human; details: 10 μM; for Label (%), newly synthesized proteins (35S-methionine): HeLa, 0 h = 100
# Method: HeLa or MEF cells (90,000 cells/mL) were plated in 12-well plates (1 mL/well). The following day cells were treated as indicated; the medium was removed, fresh medium containing compound added and incubated at 37°C for the times indicated. The time course was performed in reverse order to facilitate labeling all samples at the same time. After the treatment the cells were labeled with 100 μCi/mL ^35S-methionine (Hartmann Analytic) for 10 min at 37°C (300 μL fresh medium containing 3 μL ^35S-methionine was added to each well). Note that cells were not starved in methionine-free media before labeling with ^35S-methionine for monitoring protein synthesis. The labeled cells were then washed twice with ice-cold PBS and lysed in 120 μL Laemmli Buffer. Lysates were transferred to 1.5 mL eppendorf tubes, boiled at 95°C for 5 min, sonicated and resolved on Bolt SDS-PAGE 4%–12% Bis-Tris gels (ThermoFisher Scientific). Gels were then stained with InstantBlue (Expedeon) and after the gels had been imaged they were transferred to a 20% ethanol, 7% acetic acid, 4% glycerol solution for 10 min. This was to prevent the gels from cracking while drying. The gels were transferred to filter paper and dried using a gel dryer. The gels were then exposed to a Storage Phosphor Screen (GE Healthcare) and analyzed by phosphorimaging using a Typhoon Imager Scanner (GE Healthcare).
# [8] = test system: eIF2α phosphorylation (HeLa cells); assay: Protein analyses on immunoblots, HeLa cells; format: cell-based, human; details: unstressed, 10 μM, 0-10 h
# Method: HeLa or MEF cells (90,000 cells/mL) were plated in 12-well plates (1 mL/well). The following day cells were treated as indicated; the medium was removed, fresh medium containing compound added and incubated at 37°C for the times indicated. The time course was performed in reverse order to facilitate collecting all samples at the same time. At the end of treatment cells were washed two times with ice-cold PBS and lysed in 150 μL Laemmli Buffer. Lysates were transferred to 1.5 mL eppendorf tubes, boiled at 95°C for 5 min, sonicated and resolved on Bolt SDS-PAGE 4%–12% Bis-Tris gels (ThermoFisher Scientific). Proteins were transferred to the nitrocellulose membrane using the iBlot 2 system (ThermoFisher Scientific). Membrane was blocked in 5% skimmed milk for 30 min and then probed with primary antibodies followed by incubation with the appropriate horseradish peroxidase-conjugated secondary antibodies (Promega). Proteins were visualized using ECL Prime (GE Healthcare) and imaged in the Chemi-Smart 5000 (Vilber-Lourmat, France) or ChemiDoc Touch (BioRad). Bands were quantified using ImageJ (NIH, USA). The following primary antibodies were used: e-IF2α-P (ThermoFisher Scientific (#44-728G), 1:1,000), e-IF2α (Abcam (#ab5369), 1:1,000), tubulin (Sigma-Aldrich (#T5168), 1:4,000), BiP (BD Biosciences PharMingen (#610978), 1:1,000), ATF4 (Santa Cruz Biotechnology (#sc-200), 1:500), Ppp1r15a (Proteintech (#10449-1-AP), 1:1,000), Ppp1r15b (Proteintech (#14634-1-AP), 1:1,000) and CHOP (ABR Affinity BioReagents (#MA1-250), 1:1,000).
# [9] = target: T5, R15B-PP1c holophosphatase (R15B^340-698-PP1c) (Homo sapiens, UniProt Q5SWA1); assay: Holophosphatase SPR, compounds binding to reconstituted R15B-PP1c; details: SPR, up to 25 μM
# T5 construct: cDNAs encoding amino acids 325-636 of R15A and 340-698 of R15B were cloned into pMAL-c5x; made in house; host or cells: R15B: E. coli BL21-Gold (DE3) pLysS; bio-PP1c: Sf9 insect cells (baculovirus)
# Method: as §1
# [10] = test system: liver; assay: Oil Red O staining of liver (steatosis); format: in vivo, mouse; details: wild-type mice, single dose 40 mg/kg; Raphin1 also 2 mg/kg for 10 weeks
# Method: Treatment- and test-naive C57BL/6J males and females were used. Mice received a single dose of Raphin1 or cycloheximide (CHX, Sigma-Aldrich) at 40 mg/kg at 3 months of age or were treated chronically with Raphin1 at 2 mg/kg from 4 weeks of age for 10 weeks before the analysis. Mice were culled by cervical dislocation, liver was extracted, fresh-frozen in the O.C.T. compound (VWR International) and kept at −80°C until use. Oil Red O staining was performed on 10 μm thick frozen cryosections (Leica CM1850). Sections were washed in 60% propanol and stained for 20 min at room temperature with filtered 0.33% Oil Red O solution (VWR International). After rinsing with distilled water sections were counterstained with hematoxylin (VWR, diluted 1:15) for 1 min. Images were acquired with a 40X objective using SCN400F scanner (Leica).
# T2 sequence (P36873 1-322): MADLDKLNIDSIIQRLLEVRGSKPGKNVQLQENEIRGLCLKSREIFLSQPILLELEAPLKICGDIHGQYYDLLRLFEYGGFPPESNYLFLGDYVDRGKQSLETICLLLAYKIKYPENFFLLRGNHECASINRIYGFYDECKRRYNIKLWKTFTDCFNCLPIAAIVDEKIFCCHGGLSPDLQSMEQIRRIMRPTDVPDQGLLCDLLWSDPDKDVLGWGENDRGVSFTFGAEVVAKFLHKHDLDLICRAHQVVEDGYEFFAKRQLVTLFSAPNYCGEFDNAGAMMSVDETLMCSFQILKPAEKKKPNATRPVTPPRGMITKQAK
# T3 sequence (O75807 325-636, stated change not applied): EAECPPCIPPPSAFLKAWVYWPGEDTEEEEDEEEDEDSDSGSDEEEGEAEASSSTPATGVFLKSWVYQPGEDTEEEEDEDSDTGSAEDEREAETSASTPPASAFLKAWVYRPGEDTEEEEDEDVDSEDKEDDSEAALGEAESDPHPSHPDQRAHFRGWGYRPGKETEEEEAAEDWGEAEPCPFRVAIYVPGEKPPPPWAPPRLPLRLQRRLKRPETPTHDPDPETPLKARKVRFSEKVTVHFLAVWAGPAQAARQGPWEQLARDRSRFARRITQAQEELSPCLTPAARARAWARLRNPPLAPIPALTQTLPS
# T3 sequence (P36873 1-322 partner): as the sequence (P36873 1-322) above
# T5 sequence (P36873 1-322 partner limits assumed, one chain of several): as the sequence (P36873 1-322) above
# R15A, sequence (O75807 325-636, stated change not applied): as the sequence (O75807 325-636, stated change not applied) above
smiles,measurement,setting,value
Cc1cc2c(C(N)=O)cccc2n1-c1nc2c(c(NCc3ccccc3)n1)COCC2 [CB-5083],Effect of co-treatment on the Raphin1-induced decrease in R15B,[1],essentially abrogated
COC[C@@H]([C@H](O)[C@H](O)C(=O)NCC[C@H](C)c1nc(/C=C/C[C@@H]2O[C@]3(C[C@@H](O)[C@@H]2C)O[C@H]([C@H](C[C@H](O)[C@H](C)[C@H](O)[C@H](C)/C=C(C)/C(C)=C/C=C/C(C)=C\C#N)OC)[C@H](OP(=O)(O)O)C3(C)C)co1)N(C)C [Calyculin A],Inhibition of PP1c (dephosphorylation of difluoro-4-methylumbelliferyl phosphate),[2],inhibited
"N=C(N)N/N=C/c1c(Cl)cccc1Cl [GBZ, Guanabenz]",Binding to PP1c alone (in words),[3],did not measurably bind
same,Binding to R15A-PP1c (in words),[4],strongly bound
same,Kd,"[4]; holophosphatase reconstituted on SA chip, 20°C, mean ± SD, read-out: KD, steady-state affinity for R15A-PP1c",122 nM and < 10000 nM
same,"Protease sensitivity of R15B (limited proteolysis, conformational change)",[5],neither GBZ nor Sephin1 affected
same,"Protease sensitivity of R15A (limited proteolysis, conformational change)",[6],increased resistance to limited-proteolysis
same,Protein synthesis (in words),"[7]; HeLa cells, unstressed",no measurable effects
same,"Label (%), newly synthesized proteins (35S-methionine)",[7]; 1 h,94%
same,"Label (%), newly synthesized proteins (35S-methionine)",[7]; 2 h,92%
same,"Label (%), newly synthesized proteins (35S-methionine)",[7]; 5 h,103%
same,"Label (%), newly synthesized proteins (35S-methionine)",[7]; 7.5 h,96%
same,"Label (%), newly synthesized proteins (35S-methionine)",[7]; 10 h,97%
same,eIF2α phosphorylation,[8],no measurable effects
same,Inhibition of PP1c (dephosphorylation of difluoro-4-methylumbelliferyl phosphate),[2],did not inhibit
same,Binding to R15B-PP1c (in words),[9],did not bind or only weakly bound
CC(C)C[C@@H](C=O)NC(=O)[C@H](CC(C)C)NC(=O)[C@H](CC(C)C)NC(=O)OCc1ccccc1 [MG-132] (Cbz-Leu-Leu-Leu-aldehyde),Effect of co-treatment on the Raphin1-induced decrease in R15B,[1],prevented
Cc1cc(OCc2nnc(SC3CCCC3)n2-c2cccnc2)ccc1-c1ccc(S(C)(=O)=O)cc1 [NSM-873],Effect of co-treatment on the Raphin1-induced decrease in R15B,[1],essentially abrogated
N=C(N)N/N=C/c1ncccc1Cl [compound C3],Binding to PP1c alone (in words),[3],no detectable binding
same,Binding to R15A-PP1c (in words),[4],no detectable binding
same,Binding to R15B-PP1c (in words),[9],no detectable binding
"C[C@@H]1C[C@@H]([C@H](O)CC2CC(=O)NC(=O)C2)C(=O)[C@@H](C)C1 [cycloheximide, Cycloheximide]",Liver steatosis (Oil Red O),[10],caused liver steatosis
